Measured values as given in the supplement of paper PMC10307832.

Legend:
Experiment in all cases: relative viability (nuclei count vs DMSO), 5 days (fraction); higher = more cells survive
ABC-1 = system: ABC-1
How it was run: (§1)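 Lung cancer cell lines, seeded in 1536-well plates, were treated the following day by pin tool with a single drug or with five library-drug doses (not always all listed) in √10 steps on top of a fixed anchor-drug dose. Cells were fixed and nuclei stained in one step after 5 days, and nuclei were counted. Relative viability is the nuclei count for treated wells divided by that for vehicle wells, reported as medians of duplicate plates.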

BEN = system: BEN
How it was run: as §1

EPLC-272H = system: EPLC-272H
How it was run: as §1

HCC-827 = system: HCC-827
How it was run: as §1

HOP-62 = system: HOP-62
How it was run: as §1

LU99A = system: LU99A
How it was run: as §1

NCI-H1355 = system: NCI-H1355
How it was run: as §1

NCI-H1666 = system: NCI-H1666
How it was run: as §1

NCI-H1792 = system: NCI-H1792
How it was run: as §1

NCI-H1975 = system: NCI-H1975
How it was run: as §1

NCI-H2170 = system: NCI-H2170
How it was run: as §1

NCI-H23 = system: NCI-H23
How it was run: as §1

NCI-H2405 = system: NCI-H2405
How it was run: as §1

NCI-H3122 = system: NCI-H3122
How it was run: as §1

NCI-H322M = system: NCI-H322M
How it was run: as §1

NCI-H358 = system: NCI-H358
How it was run: as §1

NCI-H520 = system: NCI-H520
How it was run: as §1

NCI-H596 = system: NCI-H596
How it was run: as §1

NCI-H647 = system: NCI-H647
How it was run: as §1

NCI-H727 = system: NCI-H727
How it was run: as §1

NCI-H838 = system: NCI-H838
How it was run: as §1

PC-14 = system: PC-14
How it was run: as §1

UMC-11 = system: UMC-11
How it was run: as §1

O=c1[nH]c2ccccc2n1C1CCN(CCCC(c2ccc(F)cc2)c2ccc(F)cc2)CC1 [Pimozide] + N=C(N)NC(=N)NCCc1ccccc1 [Phenformin] (partner 250 µM)
relative viability (ABC-1; first compound 0.08 µM): 0.265
relative viability (ABC-1; first compound 0.253 µM): 0.258
relative viability (ABC-1; first compound 0.8 µM): 0.227
relative viability (ABC-1; first compound 2.53 µM): 0.287
relative viability (ABC-1; first compound 8 µM): 0.209
relative viability (BEN; first compound 0.08 µM): 0.278
relative viability (BEN; first compound 0.253 µM): 0.274
relative viability (BEN; first compound 0.8 µM): 0.258
relative viability (BEN; first compound 2.53 µM): 0.289
relative viability (BEN; first compound 8 µM): 0.3
relative viability (EPLC-272H; first compound 0.08 µM): 0.29
relative viability (EPLC-272H; first compound 0.253 µM): 0.306
relative viability (EPLC-272H; first compound 0.8 µM): 0.342
relative viability (EPLC-272H; first compound 2.53 µM): 0.0767
relative viability (EPLC-272H; first compound 8 µM): 0.253
relative viability (HCC-827; first compound 0.253 µM): 0.403
relative viability (HCC-827; first compound 0.8 µM): 0.464
relative viability (HCC-827; first compound 2.53 µM): 0.443
relative viability (HCC-827; first compound 8 µM): 0.42
relative viability (HOP-62; first compound 0.08 µM): 0.67
relative viability (HOP-62; first compound 0.253 µM): 0.657
relative viability (HOP-62; first compound 2.53 µM): 0.644
relative viability (HOP-62; first compound 8 µM): 0.655
relative viability (LU99A; first compound 0.08 µM): 0.803
relative viability (LU99A; first compound 0.253 µM): 0.837
relative viability (LU99A; first compound 0.8 µM): 0.573
relative viability (LU99A; first compound 2.53 µM): 0.765
relative viability (LU99A; first compound 8 µM): 0.897
relative viability (NCI-H1355; first compound 0.08 µM): 0.45
relative viability (NCI-H1355; first compound 0.253 µM): 0.435
relative viability (NCI-H1355; first compound 0.8 µM): 0.437
relative viability (NCI-H1355; first compound 2.53 µM): 0.417
relative viability (NCI-H1355; first compound 8 µM): 0.404
relative viability (NCI-H1666; first compound 0.08 µM): 0.608
relative viability (NCI-H1666; first compound 0.253 µM): 0.5
relative viability (NCI-H1666; first compound 0.8 µM): 0.597
relative viability (NCI-H1666; first compound 2.53 µM): 0.555
relative viability (NCI-H1666; first compound 8 µM): 0.513
relative viability (NCI-H1792; first compound 0.08 µM): 0.356
relative viability (NCI-H1792; first compound 0.253 µM): 0.314
relative viability (NCI-H1792; first compound 2.53 µM): 0.233
relative viability (NCI-H1792; first compound 8 µM): 0.278
relative viability (NCI-H1975; first compound 0.08 µM): 0.427
relative viability (NCI-H1975; first compound 0.253 µM): 0.395
relative viability (NCI-H1975; first compound 0.8 µM): 0.414
relative viability (NCI-H1975; first compound 2.53 µM): 0.454
relative viability (NCI-H1975; first compound 8 µM): 0.391
relative viability (NCI-H2170; first compound 0.08 µM): 0.411
relative viability (NCI-H2170; first compound 0.253 µM): 0.383
relative viability (NCI-H2170; first compound 0.8 µM): 0.44
relative viability (NCI-H2170; first compound 2.53 µM): 0.399
relative viability (NCI-H2170; first compound 8 µM): 0.367
relative viability (NCI-H23; first compound 0.08 µM): 0.782
relative viability (NCI-H23; first compound 0.253 µM): 0.741
relative viability (NCI-H23; first compound 0.8 µM): 0.673
relative viability (NCI-H23; first compound 2.53 µM): 0.692
relative viability (NCI-H23; first compound 8 µM): 0.79
relative viability (NCI-H2405; first compound 0.08 µM): 0.412
relative viability (NCI-H2405; first compound 0.253 µM): 0.389
relative viability (NCI-H2405; first compound 0.8 µM): 0.478
relative viability (NCI-H2405; first compound 2.53 µM): 0.381
relative viability (NCI-H2405; first compound 8 µM): 0.418
relative viability (NCI-H3122; first compound 0.08 µM): 0.372
relative viability (NCI-H3122; first compound 0.253 µM): 0.362
relative viability (NCI-H3122; first compound 0.8 µM): 0.393
relative viability (NCI-H3122; first compound 2.53 µM): 0.343
relative viability (NCI-H3122; first compound 8 µM): 0.312
relative viability (NCI-H322M; first compound 0.253 µM): 0.738
relative viability (NCI-H322M; first compound 0.8 µM): 0.766
relative viability (NCI-H322M; first compound 2.53 µM): 0.816
relative viability (NCI-H322M; first compound 8 µM): 0.749
relative viability (NCI-H358; first compound 0.08 µM): 0.295
relative viability (NCI-H358; first compound 0.253 µM): 0.37
relative viability (NCI-H358; first compound 0.8 µM): 0.366
relative viability (NCI-H358; first compound 2.53 µM): 0.313
relative viability (NCI-H358; first compound 8 µM): 0.327
relative viability (NCI-H520; first compound 0.08 µM): 0.724
relative viability (NCI-H520; first compound 0.253 µM): 0.615
relative viability (NCI-H520; first compound 0.8 µM): 0.613
relative viability (NCI-H520; first compound 2.53 µM): 0.623
relative viability (NCI-H520; first compound 8 µM): 0.678
relative viability (NCI-H596; first compound 0.08 µM): 0.751
relative viability (NCI-H596; first compound 0.253 µM): 0.774
relative viability (NCI-H596; first compound 0.8 µM): 0.588
relative viability (NCI-H596; first compound 2.53 µM): 0.637
relative viability (NCI-H596; first compound 8 µM): 0.897
relative viability (NCI-H647; first compound 0.08 µM): 0.59
relative viability (NCI-H647; first compound 0.253 µM): 0.497
relative viability (NCI-H647; first compound 0.8 µM): 0.435
relative viability (NCI-H647; first compound 2.53 µM): 0.452
relative viability (NCI-H647; first compound 8 µM): 0.527
relative viability (NCI-H727; first compound 0.08 µM): 0.467
relative viability (NCI-H727; first compound 0.253 µM): 0.641
relative viability (NCI-H727; first compound 0.8 µM): 0.448
relative viability (NCI-H727; first compound 2.53 µM): 0.684
relative viability (NCI-H727; first compound 8 µM): 0.577
relative viability (NCI-H838; first compound 0.08 µM): 0.609
relative viability (NCI-H838; first compound 0.253 µM): 0.636
relative viability (NCI-H838; first compound 0.8 µM): 0.636
relative viability (NCI-H838; first compound 2.53 µM): 0.519
relative viability (NCI-H838; first compound 8 µM): 0.562
relative viability (PC-14; first compound 0.253 µM): 0.451
relative viability (PC-14; first compound 2.53 µM): 0.4
relative viability (PC-14; first compound 8 µM): 0.517
relative viability (UMC-11; first compound 0.08 µM): 0.331
relative viability (UMC-11; first compound 0.253 µM): 0.333
relative viability (UMC-11; first compound 0.8 µM): 0.344
relative viability (UMC-11; first compound 2.53 µM): 0.313
relative viability (UMC-11; first compound 8 µM): 0.245
